# Measurements as given in US20240132485A1, “HETEROCYCLIC CULLIN RING UBIQUITIN LIGASE COMPOUNDS AND USES THEREOF” (CEMM - FORSCHUNGSZENTRUM FÜR MOLEKULARE MEDIZIN GMBH, priority 2020, published 2024).
# Assays:
# [1] = biological target: T1, DDB1-CDK12/Cyclin K ternary complex (Homo sapiens, UniProt Q16531+Q9NYV4); assay: NanoBRET fold-change assay (HaloTag_CDK12 / NanoLuc_DDB1 in HEK293T); format: cell-based; details: 10 μM compound, 10 minutes
# T1 construct: expressed in transfected cells; host or cells: HEK293T wildtype cells, transient PEI transfection
# T1 sequence (Q9NYV4 whole entry): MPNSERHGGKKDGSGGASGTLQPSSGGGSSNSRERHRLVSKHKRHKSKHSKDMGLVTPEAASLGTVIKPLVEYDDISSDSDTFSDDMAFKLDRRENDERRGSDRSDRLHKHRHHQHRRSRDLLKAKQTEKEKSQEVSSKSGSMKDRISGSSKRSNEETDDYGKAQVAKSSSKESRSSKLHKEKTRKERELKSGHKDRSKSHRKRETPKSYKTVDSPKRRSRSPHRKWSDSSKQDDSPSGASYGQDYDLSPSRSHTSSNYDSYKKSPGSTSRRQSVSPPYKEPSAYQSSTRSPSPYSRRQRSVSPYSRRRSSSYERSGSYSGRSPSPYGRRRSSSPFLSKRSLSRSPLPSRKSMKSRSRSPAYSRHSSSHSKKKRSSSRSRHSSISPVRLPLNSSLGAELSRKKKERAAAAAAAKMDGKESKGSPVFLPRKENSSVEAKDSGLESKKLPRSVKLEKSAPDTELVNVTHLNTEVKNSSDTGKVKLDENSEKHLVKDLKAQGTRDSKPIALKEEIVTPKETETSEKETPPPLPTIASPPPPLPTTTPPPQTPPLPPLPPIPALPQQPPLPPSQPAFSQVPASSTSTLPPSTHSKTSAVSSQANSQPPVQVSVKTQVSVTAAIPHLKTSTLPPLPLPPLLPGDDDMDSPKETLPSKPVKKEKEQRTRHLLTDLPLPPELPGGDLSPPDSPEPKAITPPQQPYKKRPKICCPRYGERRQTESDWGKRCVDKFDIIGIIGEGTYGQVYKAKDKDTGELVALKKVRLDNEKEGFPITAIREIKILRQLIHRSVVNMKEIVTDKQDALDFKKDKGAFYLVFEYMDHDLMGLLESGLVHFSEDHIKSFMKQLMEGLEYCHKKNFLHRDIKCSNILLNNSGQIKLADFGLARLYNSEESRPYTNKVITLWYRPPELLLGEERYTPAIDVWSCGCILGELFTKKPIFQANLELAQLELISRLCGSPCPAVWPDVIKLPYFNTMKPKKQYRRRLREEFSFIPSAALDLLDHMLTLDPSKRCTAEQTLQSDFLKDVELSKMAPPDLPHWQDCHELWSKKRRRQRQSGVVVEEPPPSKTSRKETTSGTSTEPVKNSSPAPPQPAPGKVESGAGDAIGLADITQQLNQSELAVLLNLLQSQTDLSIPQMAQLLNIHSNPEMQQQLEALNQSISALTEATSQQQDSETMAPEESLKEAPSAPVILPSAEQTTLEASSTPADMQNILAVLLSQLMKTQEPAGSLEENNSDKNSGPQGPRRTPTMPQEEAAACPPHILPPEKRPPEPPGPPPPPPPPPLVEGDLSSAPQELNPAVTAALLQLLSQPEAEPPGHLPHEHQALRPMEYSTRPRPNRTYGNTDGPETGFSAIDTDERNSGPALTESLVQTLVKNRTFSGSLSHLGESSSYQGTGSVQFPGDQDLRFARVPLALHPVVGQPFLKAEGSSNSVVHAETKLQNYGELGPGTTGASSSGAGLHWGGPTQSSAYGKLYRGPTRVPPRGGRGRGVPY
# T1 sequence (Q16531 whole entry): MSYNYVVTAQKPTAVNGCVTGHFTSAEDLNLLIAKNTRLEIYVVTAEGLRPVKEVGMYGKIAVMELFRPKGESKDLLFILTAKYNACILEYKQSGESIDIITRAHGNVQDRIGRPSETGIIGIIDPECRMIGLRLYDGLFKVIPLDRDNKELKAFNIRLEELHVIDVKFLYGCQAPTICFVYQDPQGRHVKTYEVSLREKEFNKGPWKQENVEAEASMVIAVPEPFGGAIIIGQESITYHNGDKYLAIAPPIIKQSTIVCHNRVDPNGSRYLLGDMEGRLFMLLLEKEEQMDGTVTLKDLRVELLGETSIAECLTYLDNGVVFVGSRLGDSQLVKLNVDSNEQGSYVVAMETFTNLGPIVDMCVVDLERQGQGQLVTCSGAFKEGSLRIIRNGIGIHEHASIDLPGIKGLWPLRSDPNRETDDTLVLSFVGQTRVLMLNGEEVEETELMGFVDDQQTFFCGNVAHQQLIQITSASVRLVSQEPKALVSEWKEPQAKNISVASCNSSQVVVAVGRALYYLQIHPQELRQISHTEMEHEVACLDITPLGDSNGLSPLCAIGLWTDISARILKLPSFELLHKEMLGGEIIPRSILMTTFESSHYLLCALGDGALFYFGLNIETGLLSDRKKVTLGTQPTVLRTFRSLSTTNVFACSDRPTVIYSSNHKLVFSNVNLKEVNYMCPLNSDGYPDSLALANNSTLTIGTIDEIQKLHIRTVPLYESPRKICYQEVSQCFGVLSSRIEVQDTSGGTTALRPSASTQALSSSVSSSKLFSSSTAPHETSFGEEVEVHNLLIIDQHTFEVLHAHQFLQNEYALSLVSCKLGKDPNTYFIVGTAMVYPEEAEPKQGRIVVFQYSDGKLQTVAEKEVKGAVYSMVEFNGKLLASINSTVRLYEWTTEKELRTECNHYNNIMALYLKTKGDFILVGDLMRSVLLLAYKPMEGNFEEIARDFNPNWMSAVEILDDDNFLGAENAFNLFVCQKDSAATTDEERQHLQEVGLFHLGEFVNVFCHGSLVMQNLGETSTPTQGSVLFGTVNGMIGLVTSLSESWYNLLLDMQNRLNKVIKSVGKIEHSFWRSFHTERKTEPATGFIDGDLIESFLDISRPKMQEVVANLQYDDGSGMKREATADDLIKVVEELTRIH
# T1 sequence (O75909 whole entry partner): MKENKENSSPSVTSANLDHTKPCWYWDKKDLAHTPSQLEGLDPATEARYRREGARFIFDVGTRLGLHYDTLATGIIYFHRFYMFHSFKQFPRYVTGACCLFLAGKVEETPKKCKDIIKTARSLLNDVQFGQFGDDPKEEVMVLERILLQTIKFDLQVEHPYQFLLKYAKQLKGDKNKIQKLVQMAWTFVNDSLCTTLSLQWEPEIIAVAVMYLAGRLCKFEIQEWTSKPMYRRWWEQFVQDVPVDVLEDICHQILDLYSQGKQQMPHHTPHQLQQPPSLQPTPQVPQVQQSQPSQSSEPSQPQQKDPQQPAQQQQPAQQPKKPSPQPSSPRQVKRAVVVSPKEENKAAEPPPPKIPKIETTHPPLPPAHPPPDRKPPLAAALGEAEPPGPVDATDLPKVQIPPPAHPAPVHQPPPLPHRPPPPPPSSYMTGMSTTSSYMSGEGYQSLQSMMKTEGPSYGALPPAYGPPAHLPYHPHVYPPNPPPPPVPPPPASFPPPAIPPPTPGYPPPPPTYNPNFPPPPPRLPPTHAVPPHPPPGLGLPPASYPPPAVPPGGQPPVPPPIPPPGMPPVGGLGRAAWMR
# Method: (§1) This assay measures the interaction/recruitment of CDK12/Cyclin K to DDB1, mechanistically validating the molecular glue pharmacology.
# (§2) HEK293T wildtype cells are seeded 800 k cells/well (DMEM+10% FBS+1% PS) in a 6-well plate and allowed to attach for ˜7 hours followed by a transient transfection of 1.5 μg HaloTag_CDK12 Plasmid [Table 1] and 0.15 μg NanoLuc_DDB1 plasmid [Table 1] per well using PEI. Cells are incubated at 37° C., 5% CO2, harvested after 24 hours and resuspended in assay media (Opti-MEM Reduced serum media, no phenol red, 4% FBS, 1% PS). Cells are adjusted to 2.3×10^5 cells/ml and treated with HaloTag 618 Ligand at 100 nM or DMSO. 8000 cells are seeded per well in triplicates per compound in a white-walled 384-well plate, one negative control treated with DMSO instead of HaloTag 618 Ligand is seeded in triplicates and the 384-well plate is incubated at 37° C., 5% CO2 overnight. Compound stock solutions are prepared in Opti-MEM−/− (Opti-MEM I Reduced serum media, no phenol red) at 8× and used to treat the cells at a final concentration of 1× at 10 μM. Cells and compounds are incubated for 10 minutes at room temperature followed by addition of NanoBRET Nano-Glo substrate following manufacturer's protocols. The plate is shaken for 30 sec followed by immediate measurement of donor emission (NanoBRET Blue at 460 nm) and acceptor emission (BRET Deep Red at 647 nm) for 0.5 s.
# [2] = biological target: T1, DDB1-CDK12/Cyclin K ternary complex; assay: NanoBRET EC50 assay (HaloTag_CDK12 / NanoLuc_DDB1 in HEK293T); format: cell-based; details: 10-point titration from 20 μM, HEK293T; for EC50: read-out: NanoBRET EC50 Activity Class
# Method: as §1, §2
# The assay setup is identical to “NanoBRET fold change experimental setup”. Instead of treating cells in […] with 10 μM compound, a 10-point titration starting at 20 μM is performed with a dilution factor of 1:4, covering α range of 20000 nM-0.076 nM.
# [3] = test system: KBM7 cells (wild-type); assay: KBM7 CTG EC50 assay (UBE2M wild-type); format: cell-based, human; details: for EC50: Homo sapiens, KBM-7, 72 h incubation, CellTiter-Glo, read-out: KBM7 CTG EC50 (UBE2M wild-type) Activity Class; for Ratio UBE2M WT to KO: ratio of anti-proliferative activity in KBM7 wild-type versus UBE2M knock-out cells (fold)
# Description: (§3) This is a cell viability assay to measure the desired therapeutic effect, i.e. killing of cancer cells. The UBE2M mutant cell line has impaired activity of the Cullin-RING ligase system due to a hypomorphic mutation in UBE2M, which is required for activation of these E3 ligases. By comparison with WT cells, it is possible to estimate the contribution of Cyclin K degradation (which is reduced in UBE2M mut cells) compared to kinase inhibition of CDK12 (which is unaffected in UBE2M mut cells). Since the UBE2M mutation only reduces CRL function without fully abrogating it, this assay may slightly underestimate the effect of degradation because, at high compound concentrations, degradation may still be observed.
# (§4) KBM7 cells (wild-type or harboring α hypomorphic UBE2M mutation (Mayor-Ruiz et al., 2019)) were seeded in a white opaque 384-well plate at a density of 1000 cells per well in duplicate, in full medium (IMDM+10% FBS+1% penicillin-streptomycin). Cells were treated with compounds in a 10-point titration with a dilution factor of 1:4 (range: 0 to 20 μM). After 72 h of incubation, the cell viability was determined using the CellTiter-Glo® 2.0 reactant (Promega), pre-diluted 1:4 in mQ water. The luminescence signal was measured using the multimode plate reader EnVision 2105 (Perkin Elmer).
# [4] = test system: KBM7 cells harboring a hypomorphic UBE2M mutation; assay: KBM7 CTG EC50 assay (UBE2M knock-out); format: cell-based; details: Homo sapiens, KBM-7; 72 h incubation, CellTiter-Glo; read-out: KBM7 CTG EC50 (UBE2M knock-out) Activity Class
# Description: as §3, §4
# [5] = test system: CCNK; assay: NanoLuc-CCNK degradation assay (HEK293T_Nluc_CCNK-tagged cells); format: cell-based; details: 4 h incubation, HEK293T_Nluc_CCNK-tagged cells; for DC50: read-out: NanoLuc-CCNK degradation DC50 Activity Class
# Method: The assay helps to elucidate the mechanistic explanation of the cell killing effect of the compounds of the present invention. Cyclin K is fused to a nanoluciferase, light emission is measured as a proxy of Cyclin K abundance. Potency of Cyclin K degradation and cytotoxicity of KBM7 correlate extremely well, further supporting Cyclin K degradation being the main driver of the cell killing, as opposed to inhibition of CDK12 catalytic activity.
# HEK293T_Nluc_CCNK-tagged cells were engineered by integrating a nanoluciferase tag at the N-terminus of the endogenous locus of CCNK using CRISPR-Cas9 technology. Briefly, 5.5 million HEK293T cells were co-transfected by PEI with a 1:1 ratio of cutting vector (sgRNA: […]) and repair template (4 μg total plasmid) as previously described (Brand and Winter, 2019). The repair sequence comprises a cassette of puromycinR-P2A-HA-Nluc-(G4S)3 (P2A: self-cleaving peptide 2A, HA: HA-tag, (G4S)3: flexible linker), surrounded by 20-nucleotide microhomologies matching the genomic locus. After 3 days of incubation, the recombinant population was selected by puromycin treatment (2 μg/ml, 5-day treatment). A monoclonal population was obtained by limiting dilution and cassette integration validated by Sanger sequencing.
# HEK293T_Nluc_CCNK-tagged cells were seeded in a white opaque 384-well plate at a density of 8000 cells per well in duplicate, in full medium (Opti-MEM I+4% FBS+1% PS). Cells were treated with compounds in a 10-point titration (range: 0 to 10 μM, 1:4 dilution). After 4 h of incubation, Nano-Glo substrate (Promega), pre-diluted in serum-free medium (Opti-MEM I), was added to the cells (1:500 final dilution). The luminescence signal was directly measured using the multimode plate reader EnVision 2105 (Perkin Elmer).
Structure (SMILES),NanoBRET fold-change Activity Class [1],EC50 [2],DC50 [5],NanoBRET EC50 Activity Class [2],NanoLuc-CCNK degradation DC50 Activity Class [5],EC50 [3],Ratio UBE2M WT to KO [3],EC50 [4]
"CC(C(=O)Nc1ncc(C(F)(F)F)s1)c1cnc2ccccc2c1 (stereo not drawn) [Example 3-35, 2-(quinolin-3-yl)-N-(5-(trifluoromethyl)thiazol-2-yl)propanamide]",A (greater than 4-fold increase),≤ 0.25 µM,≤ 100 nM,,,≤ 250 nM,15.1,≤ 250 nM
"Cc1ccc2c(CC(=O)Nc3ncc(C4CC4)s3)coc2c1C [Example 3-42, N-(5-cyclopropylthiazol-2-yl)-2-(6,7-dimethylbenzofuran-3-yl)acetamide]",A (greater than 4-fold increase),,≤ 100 nM,C (1.0 μM≤EC50<0.50 μM),,≤ 250 nM,8.5,≤ 250 nM
"COc1cc2ncn(CCC(=O)Nc3ncc(C(F)(F)F)s3)c(=O)c2cc1OC [Example 3-64, 3-(6,7-dimethoxy-4-oxoquinazolin-3(4H)-yl)-N-(5-(trifluoromethyl)thiazol-2-yl)propanamide]",A (greater than 4-fold increase),> 10 µM,≤ 100 nM,,,≤ 250 nM,21.9,500 to 1000 nM
"O=C(Cc1c[nH]c2cccnc12)Nc1ncc(C(F)(F)F)s1 [Example 3-40, 2-(1H-pyrrolo[3,2-b]pyridin-3-yl)-N-(5-(trifluoromethyl)thiazol-2-yl)acetamide]",,,,B (0.50 μM≤EC50≤0.25 μM),D (10 μM≤DC50<1.0 μM),≤ 250 nM,>200,> 10000 nM
"O=C(Cc1cn2cc(F)ccc2n1)Nc1cc(Cl)[nH]n1 [Example 3-60, N-(5-chloro-1H-pyrazol-3-yl)-2-(6-fluoroimidazo[1,2-a]pyridin-2-yl)acetamide]",C (2-3 fold increase),,> 10000 nM,,,1000 to 10000 nM,>9,> 10000 nM
"Cc1ccc2c(CC(=O)Nc3cc(Cl)[nH]n3)coc2c1C [Example 3-49, N-(5-chloro-1H-pyrazol-3-yl)-2-(6,7-dimethylbenzofuran-3-yl)acetamide]",B (3-4 fold increase),,,,B (0.50 μM≤DC50<0.10 μM),≤ 250 nM,37.3,1000 to 10000 nM
"Cc1ccc2c(CC(=O)Nc3ccc(Cl)cn3)coc2c1C [Example 3-55, N-(5-chloropyridin-2-yl)-2-(6,7-dimethylbenzofuran-3-yl)acetamide]",B (3-4 fold increase),,,,C (1.0 μM≤DC50<0.50 μM),250 to 500 nM,9.2,1000 to 10000 nM

# Now from value to compound, other results behind:
NanoBRET fold-change Activity Class [1],EC50 [2],DC50 [5],NanoBRET EC50 Activity Class [2],NanoLuc-CCNK degradation DC50 Activity Class [5],Structure (SMILES),EC50 [3],Ratio UBE2M WT to KO [3],EC50 [4]
A (greater than 4-fold increase),,≤ 100 nM,B (0.50 μM≤EC50≤0.25 μM),,"Cc1cc(N2CC(C(=O)Nc3ncc(C(F)(F)F)s3)CC2=O)ccc1F (stereo not drawn) [Example 3-17, 1-(4-fluoro-3-methylphenyl)-5-oxo-N-(5-(trifluoromethyl)thiazol-2-yl)pyrrolidine-3-carboxamide]",≤ 250 nM,17.0,250 to 500 nM
C (2-3 fold increase),,> 10000 nM,,,"O=C(Cc1ccc2cnccc2c1)Nc1ncc(C(F)(F)F)s1 [Example 3-31, 2-(isoquinolin-6-yl)-N-(5-(trifluoromethyl)thiazol-2-yl)acetamide]",1000 to 10000 nM,>4,> 10000 nM
A (greater than 4-fold increase),,≤ 100 nM,,,"CC(C(=O)Nc1ncc(C(F)(F)F)s1)c1cc2ccccc2s1 (stereo not drawn) [Example 3-11, 2-(benzo[b]thiophen-2-yl)-N-(5-(trifluoromethyl)thiazol-2-yl)propanamide]",≤ 250 nM,9.4,≤ 250 nM
